Usually melting point stands for the temperature, or range, at which the solid turns liquid.

The target in one data set is T1, hPPARα (Homo sapiens, UniProt Q07869).
T1 construct: expressed in transfected cells; host or cells: HEK-293
T1 sequence (Q07869 239-466 limits assumed): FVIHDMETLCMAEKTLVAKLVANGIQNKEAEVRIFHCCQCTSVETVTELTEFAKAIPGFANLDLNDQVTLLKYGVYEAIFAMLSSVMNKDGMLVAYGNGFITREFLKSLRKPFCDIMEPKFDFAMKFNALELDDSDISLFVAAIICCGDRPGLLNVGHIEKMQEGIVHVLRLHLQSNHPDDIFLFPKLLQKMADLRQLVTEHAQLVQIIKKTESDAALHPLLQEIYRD
Briefly: Determination of hPPARα activity (GAL4 luciferase reporter, transfected HEK-293 cells). The class given is cell-based. The following applies: compound concentration 50 μM. The protocol:
a) Determination of hPPARα activity Ligand binding domain of hPPARα was fused to DNA binding domain of Yeast transcription factor Gal 4 in eucaryotic expression vector. Using superfect (Qiagen, Germany) as transfecting reagent HEK-293 cells are transfected with this plasmid and a reporter plasmid harboring the luciferase gene driven by a GAL4 specific promoter. Compound can be added at different concentrations after 42 hrs of transfection and incubated overnight. Luciferase activity as a function of compound binding/activation capacity of PPARα will be measured using Packard Luclite kit (Packard, USA) in Top Count (Ivan Sadowski, Brendan Bell, Peter Broag and Melvyn Hollis. Gene. 1992. 118: 137-141; Superfect Transfection Reagent Handbook. February 1997. Qiagen, Germany).
In general terms: In a reporter assay the amount or activity of a reporter protein is the signal.

The target in a further data set is T2, hPPARγ1 (Homo sapiens, UniProt P37231).
T2 construct: expressed in transfected cells; host or cells: HEK-293
T2 sequence (P37231 238-503 limits assumed): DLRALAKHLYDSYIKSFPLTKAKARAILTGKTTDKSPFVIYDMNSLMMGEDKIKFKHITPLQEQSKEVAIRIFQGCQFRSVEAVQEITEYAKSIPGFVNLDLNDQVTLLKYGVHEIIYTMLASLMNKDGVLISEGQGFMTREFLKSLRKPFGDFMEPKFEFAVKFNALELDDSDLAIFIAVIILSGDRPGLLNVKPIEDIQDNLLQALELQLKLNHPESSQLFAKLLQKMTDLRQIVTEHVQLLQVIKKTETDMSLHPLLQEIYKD
As to the kind of experiment: Determination of hPPARγ activity (GAL4 luciferase reporter, transfected HEK-293 cells). The class given is cell-based. The conditions noted are these: compound concentration 1 μM. The method, then:
b) Determination of hPPARγ activity Ligand binding domain of hPPARγ1 is fused to DNA binding domain of Yeast transcription factor GAL4 in eucaryotic expression vector. Using lipofectamine (Gibco BRL, USA) as transfecting reagent HEK-293 cells are transfected with this plasmid and a reporter plasmid harboring the luciferase gene driven by a GAL4 specific promoter. Compound can be added at 1 μM concentration after 48 hrs of transfection and incubated overnight. Luciferase activity as a function of drug binding/activation capacity of PPARγ1 will be measured using Packard Luclite kit (Packard, USA) in Packard Top Count (Ivan Sadowski, Brendan Bell, Peter Broag and Melvyn Hollis. Gene. 1992. 118: 137-141; Guide to Eukaryotic Transfections with Cationic Lipid Reagents. Life Technologies, GIBCO BRL, USA).

Data set [1] deals with hypercholesterolemic Sprague Dawley rats. As to the kind of experiment: Plasma triglyceride and cholesterol lowering activity in hypercholesterolemic rat models. The class given is in vivo. The following applies: 1 mg/kg oral, results after 3 days. The protocol:
b) Plasma triglyceride and Cholesterol lowering activity in hypercholesterolemic rat models Male Sprague Dawley rats (NIN stock) were bred in DRF animal house. Animals were maintained under 12 hour light and dark cycle at 25±1° C. Rats of 180-200 gram body weight range were used for the experiment. Animals are made hypercholesterolemic by feeding 2% cholesterol and 1% sodium cholate mixed with standard laboratory chow [National Institute of Nutrition (NIN), Hyderabad, India] for 6 days. Throughout the experimental period the animals were maintained on the same diet (Petit, D., Bonnefis, M. T., Rey, C and Infante, R. Effects of ciprofibrate on liver lipids and lipoprotein synthesis in normo- and hyperlipidemic rats. Atherosclerosis. 1988. 74: 215-225).
The test compounds can be administered orally at a dose 0.1 to 30 mg/kg/day for 3 days. Control group was treated with vehicle alone (0.25% Carboxymethylcellulose; dose 10 ml/kg).
The blood samples can be collected in fed state 1 hour after drug administration on 0 and 3 day of compound treatment. The blood can be collected from the retro-orbital sinus through heparinised capillary in EDTA containing tubes. After centrifugation, plasma sample will be separated for total cholesterol, HDL and triglyceride estimations. Measurement of plasma triglyceride, total cholesterol and HDL were done using commercial kits (Dr. Reddy's Laboratory, Diagnostic Division, India). LDL and VLDL cholesterol can be calculated from the data obtained for total cholesterol, HDL and triglyceride. The reductions of various parameters examined are calculated according to the formula.
(§1) 1. Percent reduction in Blood sugar/triglycerides/total cholesterol will be calculated according to the formula:
(§2) [formula] • OC=Zero day control group value • OT=Zero day treated group value • TC=Test day control group value • TT=Test day treated group value
2. LDL and VLDL, cholesterol levels will be calculated according to the formula:
[formula] VLDL cholesterol in mg/dl=[Total cholesterol-HDL cholesterol-LDL cholesterol]mg/dl.

Another data set deals with C57BL/KsJ-db/db mice. As to the kind of experiment: Efficacy in genetic models: blood sugar and triglyceride lowering in db/db mice. It counts as in vivo, mouse. The following applies: 3 mg/kg oral, results after 6 days.
Text: a) Efficacy in Genetic Models Mutation in colonies of laboratory animals and different sensitivities to dietary regimens has made the development of animal models with non-insulin dependent diabetes and hyperlipidemia associated with obesity and insulin resistance possible. Genetic models such as db/db and ob/ob (Diabetes, (1982) 31(1): 1-6) mice and zucker fa/fa rats have been developed by the various laboratories for understanding the pathophysiology of disease and testing the efficacy of new antidiabetic compounds (Diabetes, (1983) 32: 830-838; Annu. Rep. Sankyo Res. Lab. (1994). 46: 1-57). The homozygous animals, C57 BL/KsJ-db/db mice developed by Jackson Laboratory, US, are obese, hyperglycemic, hyperinsulinemic and insulin resistant (J. Clin. Invest., (1990) 85: 962-967), whereas heterozygous are lean and normoglycemic. In db/db model, mouse progressively develops insulinopenia with age, a feature commonly observed in late stages of human type II diabetes when blood sugar levels are insufficiently controlled. The state of pancreas and its course vary according to the models. Since this model resembles that of type II diabetes mellitus, the compounds of the present invention will be tested for blood sugar and triglycerides lowering activities.
Male C57BL/KsJ-db/db mice of 8 to 14 weeks age, having body weight range of 35 to 60 grams, bred at Dr. Reddy's Research Foundation (DRF) animal house, were used in the experiment. The mice are provided with standard feed (National Institute of Nutrition (NIN), Hyderabad, India) and acidified water, ad libitum. The animals having more than 350 mg/dl blood sugar will be used for testing. The number of animals in each group will be 4.
Test compounds are suspended on 0.25% carboxymethyl cellulose and administered to test group at a dose of 0.1 mg to 30 mg/kg through oral gavage daily for 6 days. The control group receives vehicle (dose 10 ml/kg). On 6th day the blood samples will be collected one hour after administration of test compounds/vehicle for assessing the biological activity.
The random blood sugar and triglyceride levels can be measured by collecting blood (100 μl) through orbital sinus, using heparinised capillary in tubes containing EDTA which was centrifuged to obtain plasma. The plasma glucose and triglyceride levels can be measured spectrometrically, by glucose oxidase and glycerol-3-PO4 oxidase/peroxidase enzyme (Dr. Reddy's Lab. Diagnostic Division Kits, Hyderabad, India) methods respectively.
The blood sugar and triglycerides lowering activities of the test compound are calculated according to the formula.
as §1, §2

Structures are written as SMILES. Structures can show the parent of a compound that is named as a salt.

Turning to `CCOC(Cc1ccc(NC(=O)/C=C/c2ccc(OS(C)(=O)=O)cc2)cc1)C(=O)O` (centres unmarked) [Example 32, 2-Ethoxy-3-{4-[(E)-2-(4-methylsulfonyloxyvhenyl)-1-ethenylcarboxamido]-phenyl}propionic acid], the melting point is 178 to 180 °C.
In turn, `CC(C)OC(Cc1ccc(NCCCc2ccc(OS(C)(=O)=O)cc2)cc1)C(=O)O` (centres unmarked) (hydrate or solvate) [Example 21, 2-Isopropoxy-3-[4-{3-(4-methanesulfonyloxyphenyl)propylamino}phenyl]propionic acid] yielded a melting point of 143 to 145 °C.
In the case of `CCOC(Cc1ccc(NCCCc2ccc(OS(C)(=O)=O)cc2)cc1)C(=O)O` (centres unmarked) [Example 15, 2-Ethoxy-3-[4-{3-(4-methanesulfonyloxyphenyl)propylamino}phenyl]propionic acid], the PPARα at hPPARα was 6.1. The PPARγ on hPPARγ1 came out at 0.7.
The matching figures for `CCOC(Cc1ccc(NC/C=C/c2ccc(OS(C)(=O)=O)cc2)cc1)C(=O)O` (centres unmarked) [Example 27, 2-Ethoxy-3-{4-[(E)-3-(4-methylsulfonyloxyphenyl)-2-propenylamino]phenyl}propionic acid]: 8.5 and 0.8.
In the case of `CO[C@@H](Cc1ccc(NC/C=C/c2ccc(OS(C)(=O)=O)cc2)cc1)C(=O)O` [Example 43, (S)-2-Methoxy-3-[4-{(E)-3-(4-methylsulfonyloxyphenyl)-2-propenylamino}phenyl]propionic acid], in data set [1], the “Increase in High Density Lipoprotein (%)” value came out at 77%, the “Reduction in Total Cholesterol (%)” value is recorded as 53% and the “Triglyceride Lowering (%)” value came out at 55%. In data set [1] (LDL calculated from total cholesterol, HDL and triglyceride), the “Reduction in Low Density Lipoprotein (%)” value is 56%.
In the case of `CCOC(=O)[C@H](Cc1ccc(NC/C=C/c2ccc(OS(C)(=O)=O)cc2)cc1)OC` [Example 42, (S) Ethyl 2-methoxy-3-[4-{(E)-3-(4-methylsulfonyloxyphenyl)-2-propenylamino}phenyl]propionate], in the data set with C57BL/KsJ-db/db mice, the “Reduction in Blood Glucose Level (%)” value came out at 63% and the “Triglyceride Lowering (%)” value worked out at 56%.
`CCOC(=O)C(Cc1ccc(NC(=O)CCc2ccc(OS(C)(=O)=O)cc2)cc1)OCC` (centres unmarked) [Example 33, Ethyl 2-ethoxy-3-[4-(4-methylsulfonyloxyphenethylcarboxamido)phenyl]-propionate] showed a melting point of 90 to 92 °C.
The compound `CCOC(Cc1ccc(NCCCc2ccc(OS(C)(=O)=O)cc2)cc1)C(=O)O` (centres unmarked) (hydrate or solvate) [Example 15, 2-Ethoxy-3-[4-{3-(4-methanesulfonyloxyphenyl)propylamino}phenyl]propionic acid] came in with a melting point of 120 to 122 °C.
Consider `CO[C@@H](Cc1ccc(NCCCc2ccc(OS(C)(=O)=O)cc2)cc1)C(=O)O` [Example 14, (S)-2-Methoxy-3-[4-{3-(4-methanesulfonyloxyphenyl)propylamino}phenyl]propionic acid], for which the melting point lay within 90 to 92 °C. This compound had a PPARα at hPPARα of 9.4. In addition, the PPARγ on hPPARγ1 turned out to be 0.7.
In turn, `CCOC(Cc1ccc(NC/C=C/c2ccc(OS(C)(=O)=O)cc2)cc1)C(=O)O` (stereo in doubt) [Example 25, (S)-2-Ethoxy-3-{4-[(E)-3-(4-methylsulfonyloxyphenyl)-2-prope-nylamino]phenyl}propionic acid] registered a melting point of 156 to 158 °C.
The same measure, in the same setting: with `CO[C@@H](Cc1ccc(NC/C=C/c2ccc(OS(C)(=O)=O)cc2)cc1)C(=O)O` (hydrate or solvate) [Example 43, (S)-2-Methoxy-3-[4-{(E)-3-(4-methylsulfonyloxyphenyl)-2-propenylamino}phenyl]propionic acid] the figure was 116 to 118 °C.
On the same count and under the same terms, with `CCOC(Cc1ccc(NC(=O)CCc2ccc(OS(C)(=O)=O)cc2)cc1)C(=O)O` (centres unmarked) [Example 34] the figure was 164 to 166 °C; with `CCOC(Cc1ccc(NCCCc2ccc(OS(=O)(=O)c3ccc(C)cc3)cc2)cc1)C(=O)O` (centres unmarked) (hydrate or solvate) [Example 19, 2-ethoxy-3-[4-{3-(4-(toluene-4-sulfonyloxy)phenyl)propylamino}phenyl]propionate], 98 to 100 °C.
For the compound `CCOC(Cc1cccc(NCCCc2ccc(OS(C)(=O)=O)cc2)c1)C(=O)O` (centres unmarked) [Example 39, 2-Ethoxy-3-[3-{3-(4-methanesulfonyloxyphenyl)propylamino}phenyl]propionic acid Arginine salt], in the data set with C57BL/KsJ-db/db mice, the “Reduction in Blood Glucose Level (%)” value is recorded as 56% and the “Triglyceride Lowering (%)” value worked out at 36%.

These data come from patent US7598293B2, “Compounds and their use in medicine, process for their preparation and pharmaceutical compositions containing them” (Dr. Reddy's Laboratories, Inc., priority 2001, dated 2009).
